Columns and labels:
PGI2 receptor = molecular target: T1, PGI2 receptor (Homo sapiens, UniProt P43119); experiment: Inhibitory activity against 3H-iloprost binding onto PGI2 receptor in human platelet membrane fraction; details: inhibition of 10 nM [3H]-iloprost specific binding; human platelet membranes 300 μg; 24° C., 30 min; pH 7.4
T1 construct: 300 μg of platelet plasma membranes; from tissue; host or cells: human platelets (plasma membranes)
Method: i) Inhibitory activity against ^3 H-iloprost onto PGI2 receptor in human platelet membrane fraction The binding assay was performed in 200 μl volumes containing 300 μg of platelet plasma membranes. The membranes were added to a buffer composed of 50 mM Tris-HCl (pH 7.4), 15 mM MgCl2, 5 mM EDTA with test compound and 10 nM [^3 H]-iloprost. The membranes were incubated at 24° C. for 30 min. After incubation, 4ml of ice-cold 10 mM Tris-HCl buffer (pH 7.4) was added to the reaction mixture, and filtered through Whatman GF/B glass fiber filter, and washed 4 times with 4 ml of ice-cold 10 mM Tris-HCl buffer (pH 7.4) to separate bound and free [^3 H]-iloprost. After washing, the filter was dried and radioactivity was counted. Non-specific binding was obtained by performing parallel binding experiments in the presence of 10 μM non-labelled iloprost. Specific binding was calculated by subtracting the non-specific binding from the total binding. The inhibitory effect of test compound was calculated from the following equation. The percentage of inhibition (%)=100-(B1 /B0 ×100) B1 : specific [^3 H]-iloprost binding in presence of test compound B0 : specific [^3 H]-iloprost binding in absence of test compound

[1] = tested on: Human platelet aggregation; experiment: Inhibitory effect on human platelet aggregation (ADP-induced, platelet-rich plasma); type: cell-based; details: compound added 1 min prior to ADP (4 μM)
Method: | ii) Inhibitory effect on Human platelet aggregation Method of | experiment Platelet-rich plasma was prepared from human blood (5×10^5 platelets/mm^3), and the test compound was added to PRP 1 min prior to the addition of ADP (4 μM). The aggregation was monitored using a platelet aggregometer (NBS HEMA TRACER 601, Niko Bioscience, Japan).

T1 sequence (P43119 whole entry): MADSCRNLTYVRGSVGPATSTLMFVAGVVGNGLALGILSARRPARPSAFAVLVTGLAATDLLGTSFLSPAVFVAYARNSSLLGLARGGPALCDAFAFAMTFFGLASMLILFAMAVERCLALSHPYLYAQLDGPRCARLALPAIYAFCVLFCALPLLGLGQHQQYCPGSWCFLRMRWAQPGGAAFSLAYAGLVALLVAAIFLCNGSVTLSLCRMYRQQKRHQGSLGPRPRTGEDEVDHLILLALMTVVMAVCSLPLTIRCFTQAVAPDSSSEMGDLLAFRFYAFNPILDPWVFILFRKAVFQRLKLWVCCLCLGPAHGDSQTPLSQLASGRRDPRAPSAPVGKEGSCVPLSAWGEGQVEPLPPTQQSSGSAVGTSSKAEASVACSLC

SMILES | IC50 (PGI2 receptor) [nM] | IC50 [1] [nM]
O=C(O)COc1cccc2c1CCCC2CC=NOC(c1ccccc1)c1ccccc1 (stereo not drawn) [3(a)] | 5400 | 
O=C(O)COc1cccc2c1CCC2CC=NOC(c1ccccc1)c1ccccc1 (stereo not drawn) [3(e)] | 3600 | 
COc1ccc(C(ON=C(C)CC2CCc3c(cccc3OCC(=O)O)C2)c2ccc(OC)cc2)cc1 (stereo not drawn) [6(j)] | 1800 | 
CC(C)C(CC1CCc2c(cccc2OCC(=O)O)C1)=NOC(c1ccccc1)c1ccccc1 (stereo not drawn) [6(o)] | 2300 | 
O=C(O)COc1cccc2c1CCC(CC(=NOC(c1ccccc1)c1ccccc1)c1ccccc1)C2 (stereo not drawn) [6(p)] | 2800 | 
CCCCCC(ON=C(C)CC1CCc2c(cccc2OCC(=O)O)C1)c1ccccc1 (stereo not drawn) [6(r)] | 2700 | 
CC(CC1CCc2c(cccc2OCC(=O)O)C1)=NOC(c1ccccc1)C1CCCCC1 (stereo not drawn) [6(s)] | 9600 | 
O=C(O)COc1cccc2c1CCC(CCC=NOC(c1ccccc1)c1ccccc1)C2 (stereo not drawn) [Example 4, [2-(3-Diphenylmethyloxyiminopropyl)-1,2,3,4-tetrahydro-naphthalen-5-yloxy]acetic acid] | 2500 | 
CCOC(=O)COc1cccc2c1CCC(CC(C)=NOC(c1ccccc1)c1ccccc1)C2 (stereo not drawn) [Example 5, [2-(2-Diphenylmethyloxyiminopropyl)-1,2,3,4-tetrahydro-naphthalen-5-yloxy]acetic acid ethyl ester] | 7000 | 
O=C(O)COc1cccc2c1CCC(CCNOC(c1ccccc1)c1ccccc1)C2 (stereo not drawn) [Example 8, [2-(2-Diphenylmethyloxyaminoethyl)-1,2,3,4-tetrahydro-naphthalen-5-yloxy]acetic acid] | 4000 | 
O=C(O)COc1cccc2c1CCCC(C=NOC(c1ccccc1)c1ccccc1)C2 (stereo not drawn) [Example 9] | 1900 | 

The next lines start with the values.

IC50 (PGI2 receptor) [nM] | IC50 [1] [nM] | SMILES
480 |  | CC(CC1CCc2c(cccc2OCC(=O)O)C1)=NOC(c1ccc(F)cc1)c1ccc(F)cc1 (stereo not drawn) [6(e)]
1000 |  | CC(CC1CCc2c(cccc2OCC(=O)O)C1)=NOC(c1ccccc1)c1ccc([N+](=O)[O-])cc1 (stereo not drawn) [6(f)]
700 |  | CC(CC1CCc2c(cccc2OCC(=O)O)C1)=NOC(c1ccccc1)c1ccncc1 (stereo not drawn) [6(g)]
1300 | 1100 | CC(CC1CCc2c(cccc2OCC(=O)O)C1)=NOC(c1ccccc1)c1cccnc1 (stereo not drawn) [6(h)]
1800 |  | CC(CC1CCc2c(cccc2OCC(=O)O)C1)=NOC(c1ccccc1)c1ccccn1 (stereo not drawn) [6(i)]
300 |  | CC(CC1CCc2c(cccc2OCC(=O)O)C1)=NOC(c1ccccc1)c1ccc(Cl)cc1 (stereo not drawn) [6(k)]
1400 |  | CC(CC1CCc2c(cccc2OCC(=O)O)C1)=NOCc1ccccc1 (stereo not drawn) [6(l)]
270 | 71 | CCC(CC1CCc2c(cccc2OCC(=O)O)C1)=NOC(c1ccccc1)c1ccccc1 (stereo not drawn) [6(m)]
270 | 120 | CCCC(CC1CCc2c(cccc2OCC(=O)O)C1)=NOC(c1ccccc1)c1ccccc1 (stereo not drawn) [6(n)]
890 | 500 | O=C(O)COc1cccc2c1CCC(CC=NOC(c1ccccc1)c1ccccc1)C2 (stereo not drawn) [Example 3, [2-(2-Diphenylmethyloxyiminoethyl)-1,2,3,4-tetrahydro-naphthalen-5-yloxy]acetic acid]
280 | 240 | CC(CC1CCc2c(cccc2OCC(=O)O)C1)=NOC(c1ccccc1)c1ccccc1 (stereo not drawn) [Example 6, [2-(2-Diphenylmethyloxyiminopropyl)-1,2,3,4-tetrahydro-naphthalen-5-yloxy]acetic acid]
